Experimental data: paper PMC6920980, “Encapsulation in Polymeric Nanoparticles Enhances the Enzymatic Stability and the Permeability of the GLP-1 Analog, Liraglutide, Across a Culture Model of Intestinal Permeability” (Pharmaceutics, 2019)

Columns and labels:
[1] = test system: Caco-2 epithelial cell layers; assay: Permeability study on the Caco-2 model; assay type: in vitro ADME, human
Description: (§1) The Caco-2 intestinal epithelial cell line was purchased from ATCC (cat.no. HTB-37) at passage 60. The cells were grown, as previously reported, in Dulbecco’s modified Eagle’s medium (Gibco, Life Technologies, Carlsbad, CA, USA) supplemented with 10% fetal bovine serum (Pan-Biotech GmbH, Aidenbach, Germany) and 50 μg/mL gentamycin in a humidified incubator with 5% CO2 at 37 °C. All plastic surfaces were coated with 0.05% rat tail collagen in sterile distilled water before cell seeding in culture dishes and the medium was changed every 2 days.
(§2) The concentration of stock solutions for cell culture experiments were 1 mM for both the therapeutic peptide liraglutide and the PN159 peptide, which was used as a reference absorption enhancer. The working solutions were diluted in cell culture medium or Ringer-buffer depending on the experiments. The final concentration of liraglutide encapsulated in the PLGA NPs was 100 µM and was diluted directly before using. Liraglutide was examined at 100 µM, while PN159 was examined at 3 µM concentration both for cell viability and permeability.
(§3) Caco-2 cells were seeded onto Transwell inserts (polycarbonate membrane, 3 µm pore size, 1.12 cm^2 surface area; Corning Life Sciences, Tewksbury, MA, USA) and cultured for three weeks. […] Treatment solutions from both compartments were collected and the Lira level was detected by HPLC.
(§4) The apparent permeability coefficients (Papp) were calculated as described previously. […]
(§5) Recovery (mass balance) was calculated according to the equation: %Recovery=CfDV^D+CfAV^A/C0DV^D×100% where C0D and CfD are the initial and final concentrations of the compound in the donor compartment, respectively; […] is the final concentration in the acceptor compartment; and V^D and V^A are the volumes of the solutions in the donor and acceptor compartments.
(§6) Lira was analyzed by a reversed phase HPLC (Agilent 1200, San Diego, CA, USA) method that was previously developed and validated in our lab. […]

[2] = Permeability study on the Caco-2 model; assay type: in vitro ADME, human; details: human; Caco-2 on Transwell (polycarbonate, 3 µm pore, 1.12 cm^2), 3 weeks culture, apical to basal, Ringer-buffer pH 7.4, donor 100 µM liraglutide (PN159 3 µM where present), 1 h, HPLC-UV 214 nm, mean, n = 4; read-out: apparent permeability coefficient (Papp) of liraglutide
Description: as §1, §2, §3, §4, §5, §6

pancreatin = assay: Enzymatic degradation study in pancreatin-containing simulated intestinal fluid SIF; assay type: in vitro ADME, porcine; details: SIF with pancreatin (10 g/L, USP), pH 6.8, 37 °C, 100 rpm, 500 μg Lira in 2 mL, HPLC-UV, triplicate
Description: Stability analysis in the presence of pepsin and pancreatin was conducted and compared between native Lira and Lira loaded in PLGA NPs. Five hundred micrograms of native Lira, or the amount of NPs containing an equivalent amount of Lira, were added to 2 mL of pepsin-containing simulated gastric fluid SGF (3.2 g pepsin, 2 g of sodium chloride, 7 mL HCl, mixed and diluted with water to 1 L, pH = 1.2) or pancreatin-containing simulated intestinal fluid SIF (10 g pancreatin, 6.8 g KH2PO4, mixed and adjusted with 0.2 N NaOH then diluted with water to 1 L, pH = 6.8) and incubated at 37 °C under stirring at a speed of 100 rpm. The SGF and SIF were prepared as per USP specifications (Test Solutions, United States Pharmacopeia 35, NF 30, 2012). The same methodology was followed to assess the native Lira stability in SGFsp and SIFsp. […] The samples were centrifuged at 16,500× g and 4 °C for 10 min and the supernatant was analyzed by HPLC to calculate the residual Lira. […] Lira recovery in the withdrawn samples was calculated using the following equation: Lira recovery% = (Remaining Lira amount/theoretical Lira amount) × 100
as §6

[3] = test system: Caco-2 intestinal epithelial cells; assay: Cell viability measurement by impedance; assay type: cell-based, human; details: PN159 3 µM; for cell impedance kinetics: Caco-2, 24-h long treatment, liraglutide 100 µM; for cell index values measured by impedance (cell viability): Caco-2, liraglutide 100 µM, Triton X-100 1 mg/mL, in culture medium, kinetics for 24 h and 1-h time point, 10 kHz, n = 6–12
Description: as §1, §2
Impedance was measured at 10 kHz by an RTCA SP instrument (RTCA-SP instrument, ACEA Biosciences, San Diego, CA, USA). We have successfully tested the cellular effects of peptides and pharmaceutical excipients by impedance kinetics. For background measurements, 50 μL cell culture medium was added to the wells. This was followed by seeding the cells at a density of 6 × 10^3 cells/well to 96-well plate with gold electrodes (E-plate 96, ACEA Biosciences) coated with collagen. Cells were cultured for 5 days in a CO2 incubator at 37 °C and monitored every 10 min until the end of experiments. Cells were treated at the beginning of the plateau phase of growth. Lira, Lira-loaded PLGA NPs, blank PLGA NPs (without cargo), Lira and PN159 solution, and PN159 peptide were diluted in cell culture medium and the effects were followed for 24 h. Triton X-100 detergent (1 mg/mL) was used as a reference compound to obtain total cell toxicity. Cell index was defined as Rn-Rb at each time point of measurement, where Rn is the cell–electrode impedance of the well when it contains cells and Rb is the background impedance of the well with the medium alone.

Caco-2 epithelial cells = assay: Immunostaining for junctional proteins ZO-1 and β-catenin; assay type: cell-based, human; details: Caco-2 on glass coverslips, 1 h treatment, Lira 100 µM, PN159 3 µM, confocal microscopy
Description: Aiming to investigate the morphological changes in interepithelial junctions, immunostaining for the junctional proteins, zonula occludens protein-1 (ZO-1) and β-catenin, was carried out. Cells were grown on glass coverslips (Menzel-Glaser, Braunschweig, Germany) at a density of 4 × 10^4 cells/coverslips for 4 days and treated with Lira (100 µM), Lira loaded in PLGA NPs, Lira and PN159 solution, and PN159 peptide (3 µM) solutions for 1 h. After the treatment, the coverslips were washed with phosphate buffer (PBS) and the cells were fixed with 3% paraformaldehyde solution for 15 min at room temperature and incubated in 0.2% TX-100 solution for permeabilization. The cells were blocked with 3% bovine serum albumin in PBS and incubated with the rabbit primary antibodies, anti-ZO-1 and anti-β-catenin, overnight. Incubation with secondary Cy3-labeled anti-rabbit antibody lasted for 1 h. Hoechst dye 33342 was used to stain the cell nuclei. After mounting the samples (Fluoromount-G; Southern Biotech, Birmingham, AL, USA), the staining was visualized by a Visitron spinning disk confocal system (Visitron Systems GmbH, Puchheim, Germany).

With `CCCCCCCCCCCCCCCC(=O)N[C@@H](CCC(=O)NCCCC[C@H](NC(=O)[C@H](C)NC(=O)[C@H](C)NC(=O)[C@H](CCC(N)=O)NC(=O)CNC(=O)[C@H](CCC(=O)O)NC(=O)[C@H](CC(C)C)NC(=O)[C@H](Cc1ccc(O)cc1)NC(=O)[C@H](CO)NC(=O)[C@H](CO)NC(=O)[C@@H](NC(=O)[C@H](CC(=O)O)NC(=O)[C@H](CO)NC(=O)[C@@H](NC(=O)[C@H](Cc1ccccc1)NC(=O)[C@@H](NC(=O)CNC(=O)[C@H](CCC(=O)O)NC(=O)[C@H](C)NC(=O)[C@@H](N)Cc1cnc[nH]1)[C@@H](C)O)[C@@H](C)O)C(C)C)C(=O)N[C@@H](CCC(=O)O)C(=O)N[C@@H](Cc1ccccc1)C(=O)N[C@H](C(=O)N[C@@H](C)C(=O)N[C@@H](Cc1c[nH]c2ccccc12)C(=O)N[C@@H](CC(C)C)C(=O)N[C@H](C(=O)N[C@@H](CCCNC(=N)N)C(=O)NCC(=O)N[C@@H](CCCNC(=N)N)C(=O)NCC(=O)O)C(C)C)[C@@H](C)CC)C(=O)O` [Liraglutide] the “Recovery (%) Mean ± SD (mass balance)” value ([1]; after liraglutide permeability on Caco-2 cells, donor 100 µM liraglutide, Ringer-buffer pH 7.4, 1 h, HPLC, mean ± SD) was 80.9 ± 1.6%, the Papp A→B at 1 h, 100 µM [2] was 16 ×10⁻⁶ cm/s and the Lira recovery (pancreatin; 30 min incubation, mean ± SD) was 9.2 ± 0.7%. The Lira degradation (pancreatin; 1 h incubation) was “completely degraded”, the cell impedance kinetics [3] was “no decrease in cell impedance kinetics” and the “cell index values measured by impedance (cell viability)” value (“cell index values measured by impedance” for short) [3] was “did not change the cell index values”.

With `CC(C)C[C@H](NC(=O)[C@H](C)NC(=O)[C@H](CCCCN)NC(=O)[C@H](CC(C)C)NC(=O)[C@H](C)NC(=O)[C@H](CC(C)C)NC(=O)[C@H](CCCCN)NC(=O)[C@H](CC(C)C)NC(=O)[C@H](C)NC(=O)[C@H](CC(C)C)NC(=O)[C@@H](N)CCCCN)C(=O)N[C@@H](CCCCN)C(=O)N[C@@H](C)C(=O)N[C@@H](C)C(=O)N[C@@H](CC(C)C)C(=O)N[C@@H](CCCCN)C(=O)N[C@@H](CC(C)C)C(=O)N[C@@H](C)C(N)=O` [PN159 peptide] the cell impedance kinetics [3] was “no decrease in cell impedance kinetics”, the “cell index values measured by impedance” value [3] was “did not change the cell index values” and the “junctional morphology (ZO-1 and β-catenin immunostaining)” value (Caco-2 epithelial cells) was “visible change in the staining pattern of β-catenin”.

With `O=C1OC2(c3ccc(O)cc3Oc3cc(O)ccc32)c2ccccc21` [fluorescein] the “Papp of marker molecule” value ([1]; Caco-2 monolayers, TEER 893 ± 135 Ω × cm^2 before the experiments) was “below 0.5 × 10^−6 cm/s”.

For Triton X-100, the “cell index values measured by impedance” value [3] was “impedance dropped to zero”.
